Measurements: patent US8044204B2, “8-methoxy-9H-isothiazolo[5,4-b]quinoline-3,4-diones and related compounds as anti-infective agents” (Achillion Pharmaceuticals, Inc., priority 2005, dated 2011)
Structures can show the parent of a compound that is named as a salt.

Tests used:
Format in all cases: cell-based
[1] = test system: S. aureus ATCC 29213; assay: Minimum Inhibitory Concentration (MIC) assay, S. aureus; details: Staphylococcus aureus, ATCC29213; broth microdilution; read-out: MIC against S. Aureus
Method: (§1) The antimicrobial activity of the compounds of the invention may be evaluated by a number of methods, including the following visual minimum inhibitory concentration (MIC) assay. This assay determines the minimum concentration of compound required to inhibit growth of a bacterial strain.
(§2) Minimum Inhibitory Concentration (MIC) Assay
(§3) Whole-cell antibacterial activity is determined by broth microdilution using conditions recommended by the NCCLS (see National Committee for Clinical Laboratory Standards. 2001. Performance standards for antimicrobial susceptibility testing: 11th informational supplement. Vol. 21, no. 1, M100-S11. National Committee for Clinical Laboratory Standards, Wayne, Pa.). Test compounds are dissolved in DMSO and diluted 1:50 in Mueller-Hinton II broth (Becton-Dickinson) to produce a 256 μg/ml stock solution. In a 96-well microtiter plate, the compound solution is serially two-fold diluted in Mueller-Hinton II broth. After the compounds are diluted, a 50 μl aliquot of the test organism (˜1×10^6 cfu/mL) is added to each well of the microtiter plate. The final test concentrations ranges from 0.125-128 μg/mL. Inoculated plates are incubated in ambient air at 37° C. for 18 to 24 hours. The organisms selected for testing included laboratory strains S. aureus ATCC 29213 and E. coli ATCC 25922 (strains purchased from American Type Culture Collection, Manassas, Va.), S. aureus FQR700699, and Paeruginosa 27853. The minimum inhibitory concentration (MIC) is determined as the lowest concentration of compound that inhibited visible growth of the test organism.

[2] = test system: E. coli ATCC 25922; assay: Minimum Inhibitory Concentration (MIC) assay, E. coli; details: Escherichia coli, ATCC25922; broth microdilution; read-out: MIC against E. coli
Method: as §1, §2, §3

[3] = test system: MRSA strain ATCC 700699; assay: Minimum Inhibitory Concentration (MIC) assay, Methicillin Resistant S. Aureus; details: Staphylococcus aureus; broth microdilution; read-out: MIC against Methicillin Resistant S. Aureus
Description: It has been unexpectedly discovered that substitution of compounds of Formula I and Formula II with a methoxy substituent at the R8 position increases the anti-microbial activity of the compound against Methicillin resistant Staphylococcus Aureus bacteria while at the same time decreasing the cellular toxicity of the compound. The simultaneous increase in compound activity and decrease in compound toxicity provides a greater therapeutic range for compounds of Formula I and Formula II in which R8 is methoxy; i.e. the range of doses of such compounds that will produce beneficial effects without harmful side effects is increased. […] Therapeutic range is determined using a standard assay of cytotoxicity such as the Alamar blue assay provided in Example 10.
as §1, §2, §3

Measured: MIC

COc1c(N(C)C)c(F)cc2c(=O)c3c(=O)[nH]sc3n(C3CC3)c12 [Compound 42, 9-cyclopropyl-7-(dimethyl-amino)-6-fluoro-8-methoxyiso-thiazolo[5,4-b]quinoline-3,4(2H,9H)-dione]
≤ 1 µg/mL: all assays above

COc1c(N2CC[C@@H](C(C)(C)N)C2)ccc2c(=O)c3c(=O)[nH]sc3n(C3CC3)c12 [Compound 54, (R)-7-(3-(2-aminopropan-2-yl)pyrrolidin-1-yl)-9-cyclopropyl-8-methoxyiso-thiazolo[5,4-b]quinoline-3,4(2H,9H)-dione, hydrochloride]
≤ 1 µg/mL: all assays above

COc1c(N2CC[C@@H](C3(N)CC3)C2)c(F)cc2c(=O)c3c(=O)[nH]sc3n(C3CC3)c12 [Compound 55, (R)-7-(3-(1-amino-cyclopropyl)pyrrolidin-1-yl)-9-cyclopropyl-6-fluoro-8-methoxyiso-thiazolo[5,4-b]quinoline-3,4(2H,9H)-dione, hydrochloride]
≤ 1 µg/mL: all assays above

COc1c(N2CC[C@@H](C3(N)CC3)C2)ccc2c(=O)c3c(=O)[nH]sc3n(C3CC3)c12 [Compound 56, (R)-7-(3-(1-aminocyclo-propyl)pyrrolidin-1-yl)-9-cyclopropyl-8-methoxy-isothia-zolo[5,4-b]quinoline-3,4(2H,9H)-dione, hydrochloride]
≤ 1 µg/mL: all assays above

COc1c(N2CCC(C(C)(C)N)C2)c(F)cc2c(=O)c3c(=O)[nH]sc3n(C3CC3)c12 (stereo not drawn) [Compound 57, 7-(3-(2-aminopropan-2-yl)pyrrolidin-1-yl)-9-cyclopropyl-6-fluoro-8-methoxyiso-thiazolo[5,4-b]quinoline-3,4(2H,9H)-dione]
≤ 1 µg/mL: all assays above

[2H]C1([2H])CC(C(C)(C)N)C([2H])([2H])N1c1c(F)cc2c(=O)c3c(=O)[nH]sc3n(C3CC3)c2c1OC (stereo not drawn) [Compound 71, 7-(3-(2-amino-propan-2-yl)-2,2,5,5-tetradeuterated-pyrrolidin-1-yl)-9-cyclopropyl-6-fluoro-8-methoxyiso-thiazolo[5,4-b]quinoline-3,4(2H,9H)-dione]
≤ 1 µg/mL: all assays above

COc1c(N2CC[C@@H](C(C)N)C2)c(F)cc2c(=O)c3c(=O)[nH]sc3n(C3CC3)c12 (stereo partly drawn) [Compound 73, (R)-7-(3-(1-aminoethyl)pyrrolidin-1-yl)-9-cyclopropyl-6-fluoro-8-methoxyiso-thiazolo[5,4-b]quinoline-3,4(2H,9H)-dione]
≤ 1 µg/mL: all assays above

CNC(C)[C@@H]1CCN(c2c(F)cc3c(=O)c4c(=O)[nH]sc4n(C4CC4)c3c2OC)C1 (stereo partly drawn) [Compound 74, (R)-9-cyclopropyl-6-fluoro-8-methoxy-7-(3-(1-(methyl-amino)ethyl)-pyrrolidin-1-yl)isothia-zolo[5,4-b]quinoline-3,4(2H,9H)-dione]
≤ 1 µg/mL: all assays above

CC(C)(N)C1CCN(c2c(F)cc3c(=O)c4c(=O)[nH]sc4n(C4CC4)c3c2F)C1 (stereo not drawn) [Compound 75, 7-(3-(2-amino-propan-2-yl)pyrrolidin-1-yl)-9-cyclo-propyl-6,8-difluoroiso-thiazolo[5,4-b]quinoline-3,4(2H,9H)-dione]
≤ 1 µg/mL: all assays above

CCNC(C)[C@@H]1CCN(c2c(F)cc3c(=O)c4c(=O)[nH]sc4n(C4CC4)c3c2OC)C1 (stereo partly drawn) [Compound 77, (R)-9-cyclo-propyl-7-(3-(1-(ethyl-amino)ethyl)pyrrolidin-1-yl)-6-fluoro-8-methoxyiso-thiazolo[5,4-b]quinoline-3,4(2H,9H)-dione]
≤ 1 µg/mL: all assays above

CNC[C@@H]1CCN(c2c(F)cc3c(=O)c4c(=O)[nH]sc4n(C4CC4)c3c2OC)C1 [Compound 87, (S)-9-cyclo-propyl-6-fluoro-8-methoxy-7-(3-((methylamino)-methyl)pyrrolidin-1-yl)isothia-zolo[5,4-b]quinoline-3,4(2H,9H)-dione]
≤ 1 µg/mL: all assays above

COc1c(N2CC[C@@H](CNC3CC3)C2)c(F)cc2c(=O)c3c(=O)[nH]sc3n(C3CC3)c12 [Compound 88, (S)-9-cyclo-propyl-7-(3-((cyclopropyl-amino)-methyl)-pyrrolidin-1-yl)-6-fluoro-8-methoxyiso-thiazolo[5,4-b]quinoline-3,4(2H,9H)-dione]
≤ 1 µg/mL: all assays above

CCNC(C)(C)[C@@H]1CCN(c2c(F)cc3c(=O)c4c(=O)[nH]sc4n(C4CC4)c3c2OC)C1 [Compound 89, (R)-9-cyclo-propyl-7-(3-(2-(ethyl-amino)propan-2-yl)pyrrolidin-1-yl)-6-fluoro-8-methoxyiso-thiazolo[5,4-b]quinoline-3,4(2H,9H)-dione]
≤ 1 µg/mL: all assays above

COc1c(N2CC[C@@H](C(C)NC3CC3)C2)c(F)cc2c(=O)c3c(=O)[nH]sc3n(C3CC3)c12 (stereo partly drawn) [Compound 93, (R)-9-cyclo-propyl-7-(3-(1-(cyclo-propylamino)ethyl)-pyrrolidin-1-yl)-6-fluoro-8-methoxyiso-thiazolo[5,4-b]quinoline-3,4(2H,9H)-dione]
≤ 1 µg/mL: all assays above

COc1c(N2CC[C@H](C(C)NC3CC3)C2)c(F)cc2c(=O)c3c(=O)[nH]sc3n(C3CC3)c12 (stereo partly drawn) [Compound 94, (S)-9-cyclo-propyl-7-(3-(1-(cyclo-propylamino)ethyl)-pyrrolidin-1-yl)-6-fluoro-8-methoxyiso-thiazolo[5,4-b]quinoline-3,4(2H,9H)-dione]
≤ 1 µg/mL: all assays above

COc1c(N2CC(C)C(CN)C2)c(F)cc2c(=O)c3c(=O)[nH]sc3n(C3CC3)c12 (stereo not drawn) [Compound 95, 7-(3-(amino-methyl)-4-methyl-pyrrolidin-1-yl)-9-cyclopropyl-6-fluoro-8-methoxyiso-thiazolo[5,4-b]quinoline-3,4(2H,9H)-dione]
≤ 1 µg/mL: all assays above

COc1c(N2CC(C)C(C#N)C2)c(F)cc2c(=O)c3c(=O)[nH]sc3n(C3CC3)c12 (stereo not drawn) [Compound 100, 1-(9-cyclo-propyl-6-fluoro-8-methoxy-3,4-dioxo-2,3,4,9-tetrahydroisothia-zolo[5,4-b]quinolin-7-yl)-4-methyl-pyrrolidine-3-carbonitrile]
≤ 1 µg/mL: all assays above

COc1c(N2CC[C@@H](C(C)N)C2)ccc2c(=O)c3c(=O)[nH]sc3n(C3CC3)c12 (stereo partly drawn) [Compound 102, (R)-7-(3-(1-aminoethyl)-pyrrolidin-1-yl)-9-cyclopropyl-8-methoxyiso-thiazolo[5,4-b]quinoline-3,4(2H,9H)-dione]
≤ 1 µg/mL: all assays above

CNC(C)[C@@H]1CCN(c2ccc3c(=O)c4c(=O)[nH]sc4n(C4CC4)c3c2OC)C1 (stereo partly drawn) [Compound 103, (R)-9-cyclo-propyl-8-methoxy-7-(3-(1-(methylamino)-ethyl)pyrrolidin-1-yl)isothia-zolo[5,4-b]quinoline-3,4(2H,9H)-dione]
≤ 1 µg/mL: all assays above
